≈ marks a conversion by molar mass, not a printed value. Counter-ions that a name gives are not always drawn.
Key:
[1] = Selectivity index, ratio of IC50 for human 293T cells to MIC for Mycobacterium tuberculosis H37Rv; type: toxicity, cell-based; conditions: read-out: Selectivity Index
[2] = system: Mycobacterium tuberculosis; experiment: Antimycobacterial activity against Mycobacterium tuberculosis H37Rv after 45 days; type: functional
[3] = system: HEK-293T; experiment: Cytotoxicity against human 293T cells; type: cell-based

| SMILES | selectivity ratio [1] | MIC [2] [µM] | IC50 [3] [µM] |
| --- | --- | --- | --- |
| CC1(C)[C@@H]2CC[C@@]1(C)[C@H](NC(=O)[C@@H](O)c1ccccc1)C2 | 619 | 0.17 (≈ 0.0489 µg/mL) | 105 |
| CC[C@H](C)[C@H](O)C(=O)N[C@@H]1C[C@H]2CC[C@]1(C)C2(C)C | 13.6 | 7.48 (≈ 2 µg/mL) | 107 |
| CC(C)C[C@H](O)C(=O)N[C@@H]1C[C@H]2CC[C@]1(C)C2(C)C | 14.9 | 7.48 (≈ 2 µg/mL) | 112 |
| CC(C)[C@H](O)C(=O)N[C@@H]1C[C@H]2CC[C@]1(C)C2(C)C | > 25.3 | 7.89 (≈ 2 µg/mL) | > 200 |
| CO[C@H]1/C=C/O[C@@]2(C)Oc3c(C)c(O)c4c(O)c(c(/C=N/N5CCN(C)CC5)c(O)c4c3C2=O)NC(=O)/C(C)=C\C=C\[C@H](C)[C@H](O)[C@@H](C)[C@@H](O)[C@@H](C)[C@H](OC(C)=O)[C@@H]1C [RIFAMPIN] |  | 0.06 (≈ 0.0494 µg/mL) |  |
| CSCC[C@H](O)C(=O)N[C@@H]1C[C@H]2CC[C@]1(C)C2(C)C | 1010 | 0.17 (≈ 0.0485 µg/mL) | 172 |
| CC1(C)[C@@H]2CC[C@@]1(C)[C@H](NC(=O)[C@@H](O)Cc1ccccc1)C2 | 330 | 0.16 (≈ 0.0482 µg/mL) | 52.8 |
| CC[C@@H](CO)NCCN[C@@H](CC)CO [ETHAMBUTOL HYDROCHLORIDE] |  | 7.22 |  |

Source: ChEMBL document CHEMBL3098088, “Synthesis and antimycobacterial activity of novel camphane-based agents” (Bioorg Med Chem Lett, 2014)
